In patent publication US10947210B2 (priority 2015, dated 2021):
Where two headings read alike, the source gives them in different places.

Experiments:
[1] = system: HCV subgenomic RNA replicon in Huh-luc/neo-ET cells; test: HCV Replicon Assay and EC50 Determination; format: cell-based; conditions: Hepatitis C virus, 72 hours, luciferase reporter activity
Protocol: HCV Replicon Assay and EC50 Determination.
HCV replicon assay is based on the luciferase reporter cell line (Huh-luc/neo-ET). This reporter cell line is a human liver carcinoma cell line (Huh-7) stably transfected with an autonomously replicating bicistronic HCV subgenomic RNA replicon (Lohmann et al., 1999, Science, 285, 110-113). Inhibition of HCV RNA replication was monitored through analysis of reporter luciferase activity. Briefly, HCV replicon cells were incubated with inhibitors for 72 hours at 37° C. After the incubation, duplicate plates were treated and incubated in parallel for assessment of cellular toxicity by XTT staining and anti-HCV activity by measurement of luciferase reporter activity. Either human interferon alpha 2B or ribavirin was used as a reference compound. EC50 values were determined using GraFit (Erithaus software) or Excel.
Table 2 presents EC50 data obtained using this HCV replicaon assay to test representative compounds. Data are presented as follows: “+++” means <0.1 μM; “++” means ≥0.1 μM and <1.0 μM; “+” means ≥1.0 μM.

[2] = molecular target: HCV RNA-dependent RNA polymerase (NS5B) (Hepatitis C virus genotype 1b (isolate BK) (HCV), UniProt P26663); test: RNA-Dependent RNA HCV NS5B (polymerase) Assay and IC50 Determination; format: biochemical; conditions: purified HCV NS5B polymerase, polyA:U16 substrate, 32P-UTP incorporation
Chain of HCV RNA-dependent RNA polymerase (NS5B) (P26663 2420-3010): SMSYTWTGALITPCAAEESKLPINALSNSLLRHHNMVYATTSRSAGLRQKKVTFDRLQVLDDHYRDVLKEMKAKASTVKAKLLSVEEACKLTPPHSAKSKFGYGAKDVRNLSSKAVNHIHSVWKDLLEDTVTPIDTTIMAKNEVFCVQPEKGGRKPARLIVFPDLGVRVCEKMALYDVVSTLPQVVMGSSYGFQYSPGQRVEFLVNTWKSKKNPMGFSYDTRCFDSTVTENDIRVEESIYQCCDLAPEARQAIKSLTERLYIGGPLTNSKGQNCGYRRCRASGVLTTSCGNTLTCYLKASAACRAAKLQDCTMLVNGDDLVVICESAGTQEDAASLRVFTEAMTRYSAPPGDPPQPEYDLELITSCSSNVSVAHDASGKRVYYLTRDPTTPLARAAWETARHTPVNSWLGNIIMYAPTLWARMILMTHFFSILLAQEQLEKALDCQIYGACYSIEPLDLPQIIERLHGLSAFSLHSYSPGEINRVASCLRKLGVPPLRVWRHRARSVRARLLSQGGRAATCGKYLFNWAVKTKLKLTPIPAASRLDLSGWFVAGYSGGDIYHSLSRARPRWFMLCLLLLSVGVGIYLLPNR
Outline: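 Purified NS5B was incubated with 0.5 uM polyA:U16, 10 μM UTP plus ^32P-UTP in 50 mM Hepes-KOH pH 7.5, 5 mM MgCl2, 5 mM DTT, 2% glycerol and 0.01% Triton X-100. Inhibitor reactions ran 60 min at 37° C, and radiolabelled RNA product was quantified after filter capture. IC50 values were obtained from concentration series.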

Row | SMILES | EC50 [1] | IC50 ([2]; IC50 (μM)) | IC50 ([2]; read-out: IC50)
1 | CNC(=O)c1c(-c2ccc(F)cc2)oc2cc(N(CCOCCOCc3cccc(C(C)=O)c3)S(C)(=O)=O)c(C3CC3)cc12 [Compound 02-8A, 6-(N-(2-(2-(3-Acetylbenzyloxy)-ethoxy)-ethyl)-methylsulfonamido)-5-cyclopropyl-2-(4-fluorophenyl)-N-methylbenzofuran-3-carboxamide] | < 100 nM | > 1 µM | 
2 | CNC(=O)c1c(-c2ccc(F)cc2)oc2cc(N(CCOCCOCc3cccc(C(=O)/C=C(\O)C(=O)O)c3)S(C)(=O)=O)c(C3CC3)cc12 [Compound 02-10A, 4-{3-[2-(2-{[5-Cyclopropyl-2-(4-fluoro-phenyl)-3-methylcarbamoyl-benzofuran-6-yl]-methanesulfonyl-amino}-ethoxy)-ethoxymethyl]-phenyl}-2-hydroxy-4-oxo-but-2-enoic Acid] | < 100 nM |  | 0.1 to 1 µM
3 | CNC(=O)c1c(-c2ccc(F)cc2)oc2cc(N(CCOCCOCCOCCOCCOCCOCc3cccc(C(=O)/C=C(\O)C(=O)O)c3)S(C)(=O)=O)c(C3CC3)cc12 [Compound 02-10E, 4-(3-{2-[2-(2-{2-[2-(2-{[5-Cyclopropyl-2-(4-fluoro-phenyl)-3-methylcarbamoyl-benzofuran-6-yl]-methanesulfonyl-amino}-ethoxy)-ethoxy]-ethoxy}-ethoxy)-ethoxy]-ethoxymethyl}-phenyl)-2-hydroxy-4-oxo-but-2-enoic Acid] | 100 to 1000 nM |  | > 1 µM
4 | CNC(=O)c1c(-c2ccc(F)cc2)oc2cc(N(CCOCCOCc3ccc(C(=O)/C=C(\O)C(=O)O)cc3)S(C)(=O)=O)c(C3CC3)cc12 [Compound 02-10F, 4-{4-[2-(2-{[5-Cyclopropyl-2-(4-fluoro-phenyl)-3-methylcarbamoyl-benzofuran-6-yl]-methanesulfonyl-amino}-ethoxy)-ethoxymethyl]-phenyl}-2-hydroxy-4-oxo-but-2-enoic Acid] | < 100 nM |  | > 1 µM
5 | CNC(=O)c1c(-c2ccc(F)cc2)oc2cc(N(CCOCCCOCc3cccc(C(=O)/C=C(\O)C(=O)O)c3)S(C)(=O)=O)c(C3CC3)cc12 [Compound 03-8B, 4-{3-[3-(2-{[5-Cyclopropyl-2-(4-fluoro-phenyl)-3-methylcarbamoyl-benzofuran-6-yl]-methanesulfonyl-amino}-ethoxy)-propoxymethyl]-phenyl}-2-hydroxy-4-oxo-but-2-enoic Acid] | < 100 nM |  | > 1 µM
6 | CNC(=O)c1c(-c2ccc(F)cc2)oc2cc(N(CCOCCOCCOCCO)S(C)(=O)=O)c(C3CC3)cc12 [Compound 04-5, 5-Cyclopropyl-2-(4-fluorophenyl)-6-(N-(2-(2-(2-(2-hydroxyethoxy)-ethoxy)-ethoxy)-ethyl) Methylsulfonamido)-N-methylbenzofuran-3-carboxamide] | 100 to 1000 nM | > 1 µM | 
7 | CNC(=O)c1c(-c2ccc(F)cc2)oc2cc(N(CCOCCOCc3ccccc3C(=O)O)S(C)(=O)=O)c(C3CC3)cc12 [Compound 06-7A, 2-[2-(2-{[5-Cyclopropyl-2-(4-fluoro-phenyl)-3-methylcarbamoyl-benzofuran-6-yl]-methanesulfonyl-amino}-ethoxy)-ethoxymethyl]-benzoic Acid] | < 100 nM |  | 0.1 to 1 µM
8 | CNC(=O)c1c(-c2ccc(F)cc2)oc2cc(N(CCOCCOCc3ccc(C(=O)O)cc3)S(C)(=O)=O)c(C3CC3)cc12 [Compound 06-7B, 4-[2-(2-{[5-Cyclopropyl-2-(4-fluoro-phenyl)-3-methylcarbamoyl-benzofuran-6-yl]-methanesulfonyl-amino}-ethoxy)-ethoxymethyl]-benzoic Acid] | 100 to 1000 nM |  | 0.1 to 1 µM
9 | CNC(=O)c1c(-c2ccc(F)cc2)oc2cc(N(CCOCCOCc3cccc(C(=O)O)c3)S(C)(=O)=O)c(C3CC3)cc12 [Compound 06-7C, 3-[2-(2-{[5-Cyclopropyl-2-(4-fluoro-phenyl)-3-methylcarbamoyl-benzofuran-6-yl]-methanesulfonyl-amino}-ethoxy)-ethoxymethyl]-benzoic Acid] | < 100 nM |  | 0.1 to 1 µM
10 | CNC(=O)c1c(-c2ccc(F)cc2)oc2cc(N(CCOC(=O)CNC(=O)CCCC(=O)O)S(C)(=O)=O)c(C3CC3)cc12 [Compound 08-6, 4-[(2-{[5-Cyclopropyl-2-(4-fluoro-phenyl)-3-methylcarbamoyl-benzofuran-6-yl]-methanesulfonyl-amino}-ethoxycarbonylmethyl)-carbamoyl]-butyric Acid] | 100 to 1000 nM | 0.1 to 1 µM | 
11 | CNC(=O)c1c(-c2ccc(F)cc2)oc2cc(N(CC(=O)NCC(=O)NCc3cccc(C(=O)/C=C(\O)C(=O)O)c3)S(C)(=O)=O)c(C3CC3)cc12 [Compound 09-14A, 4-(3-{[2-(2-{[5-Cyclopropyl-2-(4-fluoro-phenyl)-3-methylcarbamoyl-benzofuran-6-yl]-methanesulfonyl-amino}-acetylamino)-acetylamino]-methyl}-phenyl)-2-hydroxy-4-oxo-but-2-enoic Acid] | 100 to 1000 nM |  | 0.1 to 1 µM
12 | CNC(=O)c1c(-c2ccc(F)cc2)oc2cc(N(CC(=O)NC(C)(C)C(=O)NCc3cccc(C(=O)C=C(O)C(=O)O)c3)S(C)(=O)=O)c(C3CC3)cc12 [Compound 09-14C, 4-(3-{[2-(2-{[5-Cyclopropyl-2-(4-fluoro-phenyl)-3-methylcarbamoyl-benzofuran-6-yl]-methanesulfonyl-amino}-acetylamino)-2-methyl-propionylamino]-methyl}-phenyl)-2-hydroxy-4-oxo-but-2-enoic Acid] | 100 to 1000 nM |  | > 1 µM
13 | CNC(=O)c1c(-c2ccc(F)cc2)oc2cc(N(CC(=O)NC3(C(=O)NCc4cccc(C(=O)C=C(O)C(=O)O)c4)CCCC3)S(C)(=O)=O)c(C3CC3)cc12 [Compound 09-14E, 4-[3-({[1-(2-{[5-Cyclopropyl-2-(4-fluoro-phenyl)-3-methylcarbamoyl-benzofuran-6-yl]-methanesulfonyl-amino}-acetylamino)-cyclopentanecarbonyl]-amino}-methyl)-phenyl]-2-hydroxy-4-oxo-but-2-enoic Acid] | 100 to 1000 nM |  | > 1 µM
14 | CNC(=O)c1c(-c2ccc(F)cc2)oc2cc(N(CC(=O)NC(C)C(=O)NCc3cccc(C(=O)C=C(O)C(=O)O)c3)S(C)(=O)=O)c(C3CC3)cc12 (stereo not shown) [Compound 09-14F, 4-(3-{[2-(2-{[5-Cyclopropyl-2-(4-fluoro-phenyl)-3-methylcarbamoyl-benzofuran-6-yl]-methanesulfonyl-amino}-acetylamino)-propionylamino]-methyl}-phenyl)-2-hydroxy-4-oxo-but-2-enoic Acid] | 100 to 1000 nM |  | > 1 µM
15 | CNC(=O)c1c(-c2ccc(F)cc2)oc2cc(N(CCCCOCCc3ccc(C(=O)O)cc3)S(C)(=O)=O)c(C3CC3)cc12 [Compound 13-8C, 4-(2-(4-(N-(5-cyclopropyl-2-(4-fluorophenyl)-3-(methylcarbamoyl)benzofuran-6-yl)-methylsulfonamido)butoxy)-ethyl)benzoic Acid] | < 100 nM |  | 0.1 to 1 µM
16 | CNC(=O)c1c(-c2ccc(F)cc2)oc2cc(N(CCCCCCCc3ccc(C(=O)O)cc3)S(C)(=O)=O)c(C3CC3)cc12 [Compound 13-8D, 4-(7-{[5-Cyclopropyl-2-(4-fluoro-phenyl)-3-methylcarbamoyl-benzofuran-6-yl]-methanesulfonyl-amino}-heptyl)-benzoic Acid] | < 100 nM |  | 0.1 to 1 µM
17 | CNC(=O)c1c(-c2ccc(F)cc2)oc2cc(N(CCCCCOCc3ccc(C(=O)O)cc3)S(C)(=O)=O)c(C3CC3)cc12 [Compound 16-7, 4-(5-{[5-Cyclopropyl-2-(4-fluoro-phenyl)-3-methylcarbamoyl-benzofuran-6-yl]-methanesulfonyl-amino}-pentyloxymethyl)-benzoic Acid] | < 100 nM |  | 0.1 to 1 µM
18 | CCOC(=O)c1cc(COCCOCCN(c2cc3oc(-c4ccc(F)cc4)c(C(=O)NC)c3cc2C2CC2)S(C)(=O)=O)ccc1F [Compound 30-14, 5-[2-(2-{[5-Cyclopropyl-2-(4-fluoro-phenyl)-3-methylcarbamoyl-benzofuran-6-yl]-methanesulfonyl-amino}-ethoxy)-ethoxymethyl]-2-fluoro-benzoic acid ethyl ester] |  |  | > 1 µM
19 | CNC(=O)c1c(-c2ccc(F)cc2)oc2cc(N(CCOCCOCCOCCCCCc3cccc(C(=O)CC(=O)C(=O)O)c3)S(C)(=O)=O)c(C3CC3)cc12 [Compound 30-15, 4-[3-(5-{2-[2-(2-{[5-Cyclopropyl-2-(4-fluoro-phenyl)-3-methylcarbamoyl-benzofuran-6-yl]-methanesulfonyl-amino}-ethoxy)-ethoxy]-ethoxy}-pentyl)-phenyl]-2,4-dioxo-butyric acid] |  |  | > 1 µM
20 | CNC(=O)c1c(-c2ccc(F)cc2)oc2cc(N(CCOCCOCCOCCCCc3cccc(C(=O)CC(=O)C(=O)O)c3)S(C)(=O)=O)c(C3CC3)cc12 [Compound 30-16, 4-[3-(4-{2-[2-(2-{[5-Cyclopropyl-2-(4-fluoro-phenyl)-3-methylcarbamoyl-benzofuran-6-yl]-methanesulfonyl-amino}-ethoxy)-ethoxy]-ethoxy}-butyl)-phenyl]-2,4-dioxo-butyric acid] |  |  | > 1 µM
